Assay results from paper PMC7044277 (Nature Communications, 2020).
Values joined by “and” are separate entries in the source; they are usually repeats but may differ in a detail not shown here. Equal entries are not always repeated.

Tests used:
Format in all cases: cell-based
320 non-olfactory GPCRs [1] = target: T1, 320 non-olfactory GPCRs (Homo sapiens, UniProt P0DMS8)
T1 construct: expressed in transfected cells; host or cells: HTLA cells

320 non-olfactory GPCRs [2] = target: T2, 320 non-olfactory GPCRs (Homo sapiens, UniProt P25024)
T2 construct: expressed in transfected cells; host or cells: HTLA cells
T2 sequence (P25024 whole entry): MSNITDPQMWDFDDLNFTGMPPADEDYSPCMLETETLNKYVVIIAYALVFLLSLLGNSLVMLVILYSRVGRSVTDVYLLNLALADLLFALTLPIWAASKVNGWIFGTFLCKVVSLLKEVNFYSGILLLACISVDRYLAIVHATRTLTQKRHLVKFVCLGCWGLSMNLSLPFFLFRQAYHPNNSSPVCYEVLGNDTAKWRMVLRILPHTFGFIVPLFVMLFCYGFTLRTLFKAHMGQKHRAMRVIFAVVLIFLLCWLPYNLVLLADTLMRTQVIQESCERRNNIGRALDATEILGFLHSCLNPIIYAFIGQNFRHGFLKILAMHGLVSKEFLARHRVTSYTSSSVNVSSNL

320 non-olfactory GPCRs [3] = target: T3, 320 non-olfactory GPCRs (Homo sapiens, UniProt P25116)
T3 construct: expressed in transfected cells; host or cells: HTLA cells
T3 sequence (P25116 22-425): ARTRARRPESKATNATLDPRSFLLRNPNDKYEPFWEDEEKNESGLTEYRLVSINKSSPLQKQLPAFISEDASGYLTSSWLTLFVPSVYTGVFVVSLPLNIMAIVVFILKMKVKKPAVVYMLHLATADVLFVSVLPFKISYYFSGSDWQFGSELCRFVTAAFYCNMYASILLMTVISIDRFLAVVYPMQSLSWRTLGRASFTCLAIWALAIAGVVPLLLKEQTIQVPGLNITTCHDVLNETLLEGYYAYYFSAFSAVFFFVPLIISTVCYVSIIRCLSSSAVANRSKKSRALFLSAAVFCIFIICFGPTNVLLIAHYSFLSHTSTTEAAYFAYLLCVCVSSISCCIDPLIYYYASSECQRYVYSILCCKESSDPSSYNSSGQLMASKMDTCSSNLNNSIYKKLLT

320 non-olfactory GPCRs [4] = target: T4, 320 non-olfactory GPCRs (Homo sapiens, UniProt P51685)
T4 construct: expressed in transfected cells; host or cells: HTLA cells
T4 sequence (P51685 whole entry): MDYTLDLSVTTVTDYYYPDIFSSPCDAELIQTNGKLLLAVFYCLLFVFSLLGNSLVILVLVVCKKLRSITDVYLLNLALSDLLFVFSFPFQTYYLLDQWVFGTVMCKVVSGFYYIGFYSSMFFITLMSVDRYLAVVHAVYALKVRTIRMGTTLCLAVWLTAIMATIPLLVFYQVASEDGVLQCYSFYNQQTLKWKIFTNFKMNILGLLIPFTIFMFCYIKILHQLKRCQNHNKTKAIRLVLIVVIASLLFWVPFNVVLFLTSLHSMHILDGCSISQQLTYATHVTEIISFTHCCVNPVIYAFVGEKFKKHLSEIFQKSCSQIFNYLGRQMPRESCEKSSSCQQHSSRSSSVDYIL
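Note: compound tested at 1 µM final concentration.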

T1 sequence (P0DMS8 whole entry): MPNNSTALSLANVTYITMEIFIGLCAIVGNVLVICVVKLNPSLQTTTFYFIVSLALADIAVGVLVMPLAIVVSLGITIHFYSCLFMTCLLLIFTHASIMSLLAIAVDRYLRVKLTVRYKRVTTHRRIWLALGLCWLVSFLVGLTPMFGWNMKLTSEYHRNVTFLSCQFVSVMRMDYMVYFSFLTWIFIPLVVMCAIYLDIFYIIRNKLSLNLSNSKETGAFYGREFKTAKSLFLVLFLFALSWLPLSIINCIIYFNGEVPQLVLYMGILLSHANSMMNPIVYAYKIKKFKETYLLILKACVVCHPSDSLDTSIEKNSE

## CCOc1cccc2cc(C(C)NCC3(O)CCCCC3)oc12 (stereo not shown) [O4LE6]
320 non-olfactory GPCRs [1]
  Fold of Basal: 1.06 and 1.364 and 1.085 and 1.781
320 non-olfactory GPCRs [2]
  Fold of Basal: 1.143 and 1.163 and 1.159 and 1.512
320 non-olfactory GPCRs [3]
  Fold of Basal: 0.906 and 0.8507 and 1.071 and 1.142
320 non-olfactory GPCRs [4]
  Fold of Basal: 1.057 (2×) and 0.6946 and 0.6945
